Measured values reported in the CheMixHub viscosity set.

Assay: xn = mol fraction of the nth substance listed

Cc1ccccc1 + CCCO
Details	viscosity [mPa·s]
293.15 K, 100 kPa, x2 = 0.125	0.611
293.15 K, 100 kPa, x2 = 0.25	0.636
293.15 K, 100 kPa, x2 = 0.375	0.747
293.15 K, 100 kPa, x2 = 0.5	0.875
293.15 K, 100 kPa, x2 = 0.625	1.055
293.15 K, 100 kPa, x2 = 0.75	1.312
293.15 K, 100 kPa, x2 = 0.875	1.685
298.15 K, 100 kPa, x2 = 0.0553	0.5596
298.15 K, 100 kPa, x2 = 0.1089	0.572
298.15 K, 100 kPa, x2 = 0.1987	0.5972
298.15 K, 100 kPa, x2 = 0.319	0.6607
298.15 K, 100 kPa, x2 = 0.4308	0.7379
298.15 K, 100 kPa, x2 = 0.5349	0.7998
298.15 K, 100 kPa, x2 = 0.632	0.9538
298.15 K, 100 kPa, x2 = 0.723	1.116
298.15 K, 100 kPa, x2 = 0.8083	1.265
298.15 K, 100 kPa, x2 = 0.8884	1.563
298.15 K, 100 kPa, x2 = 0.9639	1.825
298.15 K, 101 kPa, x2 = 0.1	0.558
298.15 K, 101 kPa, x2 = 0.2	0.588
298.15 K, 101 kPa, x2 = 0.3	0.6389
298.15 K, 101 kPa, x2 = 0.4	0.7091
298.15 K, 101 kPa, x2 = 0.5	0.801
298.15 K, 101 kPa, x2 = 0.6	0.9211
298.15 K, 101 kPa, x2 = 0.7	1.08
298.15 K, 101 kPa, x2 = 0.8	1.292
298.15 K, 101 kPa, x2 = 0.9	1.576
303 K, 101 kPa, x1 = 0.1006	1.367
303 K, 101 kPa, x1 = 0.2012	1.171
303 K, 101 kPa, x1 = 0.3009	1.025
303 K, 101 kPa, x1 = 0.3981	0.902
303 K, 101 kPa, x1 = 0.5016	0.785
303 K, 101 kPa, x1 = 0.6052	0.699
303 K, 101 kPa, x1 = 0.7001	0.645
303 K, 101 kPa, x1 = 0.8095	0.598
303 K, 101 kPa, x1 = 0.9011	0.546
303.15 K, 101.33 kPa, x1 = 0.1141	1.376
303.15 K, 101.33 kPa, x1 = 0.1926	1.182
303.15 K, 101.33 kPa, x1 = 0.2912	0.982
303.15 K, 101.33 kPa, x1 = 0.3778	0.866
303.15 K, 101.33 kPa, x1 = 0.4778	0.761
303.15 K, 101.33 kPa, x1 = 0.6242	0.651
303.15 K, 101.33 kPa, x1 = 0.7421	0.587
303.15 K, 101.33 kPa, x1 = 0.8737	0.541
303.15 K, 101.33 kPa, x1 = 0.9517	0.527
308.15 K, 100 kPa, x2 = 0.0553	0.5017
308.15 K, 100 kPa, x2 = 0.1089	0.5107
308.15 K, 100 kPa, x2 = 0.1987	0.5293
308.15 K, 100 kPa, x2 = 0.319	0.572
308.15 K, 100 kPa, x2 = 0.4308	0.6289
308.15 K, 100 kPa, x2 = 0.5349	0.6996
308.15 K, 100 kPa, x2 = 0.632	0.7945
308.15 K, 100 kPa, x2 = 0.723	0.8952
308.15 K, 100 kPa, x2 = 0.8083	1.019
308.15 K, 100 kPa, x2 = 0.8884	1.24
308.15 K, 100 kPa, x2 = 0.9639	1.422
308.15 K, 101.33 kPa, x1 = 0.1141	1.251
308.15 K, 101.33 kPa, x1 = 0.1926	1.078
308.15 K, 101.33 kPa, x1 = 0.2912	0.899
308.15 K, 101.33 kPa, x1 = 0.3778	0.795
308.15 K, 101.33 kPa, x1 = 0.4778	0.703
308.15 K, 101.33 kPa, x1 = 0.6242	0.608
308.15 K, 101.33 kPa, x1 = 0.7421	0.553
308.15 K, 101.33 kPa, x1 = 0.8737	0.514
308.15 K, 101.33 kPa, x1 = 0.9517	0.499
313.15 K, 100 kPa, x2 = 0.125	0.479
313.15 K, 100 kPa, x2 = 0.25	0.495
313.15 K, 100 kPa, x2 = 0.375	0.554
313.15 K, 100 kPa, x2 = 0.5	0.625
313.15 K, 100 kPa, x2 = 0.625	0.728
313.15 K, 100 kPa, x2 = 0.75	0.876
313.15 K, 100 kPa, x2 = 0.875	1.087
313.15 K, 101.33 kPa, x1 = 0.1141	1.15
313.15 K, 101.33 kPa, x1 = 0.1926	0.99
313.15 K, 101.33 kPa, x1 = 0.2912	0.83
313.15 K, 101.33 kPa, x1 = 0.3778	0.736
313.15 K, 101.33 kPa, x1 = 0.4778	0.655
313.15 K, 101.33 kPa, x1 = 0.6242	0.57
313.15 K, 101.33 kPa, x1 = 0.7421	0.521
313.15 K, 101.33 kPa, x1 = 0.8737	0.491
313.15 K, 101.33 kPa, x1 = 0.9517	0.476

C1CCOC1 + CCO
Details	viscosity [mPa·s]
298.15 K, 101 kPa, x1 = 0.4	0.6728

CC(C)=O + CCO
298.15 K, 101 kPa
Details	viscosity [mPa·s]
x1 = 0.1868	0.7168
x1 = 0.2337	0.651
x1 = 0.3003	0.5795
x1 = 0.3162	0.5636
x1 = 0.378	0.5162
x1 = 0.3887	0.5028
x1 = 0.4579	0.462
x1 = 0.6529	0.3836

CC1COC(=O)O1 (centres undefined) + CCO
298 K, 101.3 kPa
Details	viscosity [mPa·s]
x1 = 0.021	1.1
x1 = 0.0404	1.116
x1 = 0.06	1.131
x1 = 0.0806	1.147
x1 = 0.0987	1.161
x1 = 0.2008	1.237
x1 = 0.3003	1.312
x1 = 0.4003	1.397
x1 = 0.5002	1.497
x1 = 0.6002	1.619
x1 = 0.7001	1.768
x1 = 0.8	1.947
x1 = 0.9005	2.165

COc1ccccc1 + CCO
298.15 K, 101 kPa
Details	viscosity [mPa·s]
x1 = 0.07099	1.045
x1 = 0.152	0.989
x1 = 0.2432	0.947
x1 = 0.3485	0.918
x1 = 0.4715	0.904
x1 = 0.6165	0.905
x1 = 0.7928	0.924

Cc1ccccc1 + CCO
Details	viscosity [mPa·s]
293.2 K, 101.32 kPa, x2 = 0.05	0.568
293.2 K, 101.32 kPa, x2 = 0.136	0.587
293.2 K, 101.32 kPa, x2 = 0.28	0.616
293.2 K, 101.32 kPa, x2 = 0.55	0.731
293.2 K, 101.32 kPa, x2 = 0.735	0.861
303 K, 101 kPa, x1 = 0.1006	0.821
303 K, 101 kPa, x1 = 0.2012	0.786
303 K, 101 kPa, x1 = 0.3009	0.724
303 K, 101 kPa, x1 = 0.3981	0.686
303 K, 101 kPa, x1 = 0.5016	0.643
303 K, 101 kPa, x1 = 0.6052	0.613
303 K, 101 kPa, x1 = 0.7001	0.602
303 K, 101 kPa, x1 = 0.8095	0.569
303 K, 101 kPa, x1 = 0.9011	0.551
303 K, 101.33 kPa, x2 = 0.3333	0.574
303 K, 101.33 kPa, x2 = 0.5714	0.651
303 K, 101.33 kPa, x2 = 0.75	0.774
303 K, 101.33 kPa, x2 = 0.8889	0.927
303.15 K, 101.33 kPa, x1 = 0.0692	0.893
303.15 K, 101.33 kPa, x1 = 0.1849	0.803
303.15 K, 101.33 kPa, x1 = 0.3191	0.699
303.15 K, 101.33 kPa, x1 = 0.5285	0.596
303.15 K, 101.33 kPa, x1 = 0.5858	0.575
303.15 K, 101.33 kPa, x1 = 0.6901	0.546
303.15 K, 101.33 kPa, x1 = 0.7906	0.527
303.15 K, 101.33 kPa, x1 = 0.8565	0.519
303.15 K, 101.33 kPa, x1 = 0.9213	0.524
308.15 K, 101.33 kPa, x1 = 0.0692	0.814
308.15 K, 101.33 kPa, x1 = 0.1849	0.736
308.15 K, 101.33 kPa, x1 = 0.3191	0.642
308.15 K, 101.33 kPa, x1 = 0.5285	0.552
308.15 K, 101.33 kPa, x1 = 0.5858	0.533
308.15 K, 101.33 kPa, x1 = 0.6901	0.507
308.15 K, 101.33 kPa, x1 = 0.7906	0.491
308.15 K, 101.33 kPa, x1 = 0.8565	0.486
308.15 K, 101.33 kPa, x1 = 0.9213	0.493
313 K, 101.33 kPa, x2 = 0.3333	0.504
313 K, 101.33 kPa, x2 = 0.5714	0.557
313 K, 101.33 kPa, x2 = 0.75	0.654
313 K, 101.33 kPa, x2 = 0.8889	0.778
323 K, 101.33 kPa, x2 = 0.3333	0.446
323 K, 101.33 kPa, x2 = 0.5714	0.479
323 K, 101.33 kPa, x2 = 0.75	0.557
323 K, 101.33 kPa, x2 = 0.8889	0.648
